Test results from patent publication US9642875B2, “Compounds and their effects on appetite control and insulin sensitivity” (priority 2012, dated 2017).
“Also recorded” adds a separate entry of the source. Like-named read-outs stand apart in the source and are kept apart here.

Key:
[1] = format: in vivo, human; settings: 10 g, 24 hour pooled urine, n=5
Method: The mean (±SEM) age, weight and body mass index (BMI) was 32±4 years, 75.0±4.0 kg and 25.0±1.3 kg/m^2, respectively.
(§1) The inclusion criteria for the investigation were a BMI of 20 to 35 kg/m^2 and 21 to 65 years of age.
Subjects were studied on four occasions one week apart. […] Cumulative ^13CO2 excretion was also calculated. Blood was collected serially throughout the study.
Plasma was collected at −15, 0, 15, 30, 60, 90, 120, 180, 240, 300, 360 min for analysis of ^13C propionate enrichment by GC-combustion-IRMS (GC-C-IRMS). Acetate ^13C enrichment was also measured in the same analysis as a control for dietary influence on SCFA ^13C enrichment and for evidence of inter-conversion between propionate and acetate. Data were expressed as δ^13C (per mil or ‰) which represents the change in the measured ratio in parts per thousand from the internationally accepted standard carbon Vienna Pee Dee Belemnite (VPDB). Urine was analyzed for ^13C propionate by GC-C-IRMS. Urine was collected and pooled from just before consumption of the propionate ester for a period of 24 hours. Two 25 ml aliquots were collected and stored at −20° C. until analysis. Isotopic enrichment was expressed as δ^13C (‰). SCFA concentrations (mmol/L) were measured relative to an internal standard (3-methyl valerate).

[2] = format: in vivo, human
Method: Twenty healthy subjects (15 males and 5 females) were recruited for the food intake investigation. The mean (±SEM) age, weight and body mass index (BMI) was 31±2 years, 75.0±3.0 kg and 25.4±0.8 kg/m^2, respectively.
as §1
The study was performed in a randomized, double-blind, crossover manner, with each subject studied on two occasions >4 days apart. […] The amount of food was quantified preprandially and postprandially, and energy intake was calculated. […] In addition, VAS were also completed to assess the palatability of the standardized breakfast.
Differences in energy intake and incremental area under the curve (iAUC) for plasma hormone levels and VAS between trials were assessed using Paired Student's t tests. […] Significant effects were followed up by post hoc comparisons (Dunnett). P values<0.05 were considered statistically significant. Data are presented as means±SEM.

[3] = Source text: Healthy men and women aged 40-65 years, with a BMI of 25-40 kg/m^2 were recruited from the general public. Potential subjects were excluded if they had clinically significant illnesses (including type 1 or type 2 diabetes), were taking medication known to affect appetite and/or body weight, a weight loss of 3 kg or greater in the preceding two months, smoking, substance abuse, psychiatric illness, restrained eating (Dutch eating behavior questionnaire: male score >2.25; female score >2.80), and any abnormalities detected on physical examination, electrocardiography, or screening blood tests (measurement of complete blood count, electrolytes, fasting glucose, thyroid function and liver function). Women were ineligible if they were pregnant or breast-feeding. […] The study was carried out in accordance with the Declaration of Helsinki.
The study was conducted in a randomized, double-blind, placebo-controlled, parallel design. Two-day study visits were required at baseline (week 0) and after 24 weeks of dietary supplementation. On the day prior to each study visit, subjects were asked to consume a standard evening meal, fast overnight from 22:00 and to avoid strenuous physical activity and alcohol. All study visits commenced between 08:00 and 09:00. […] The dietary supplement was supplied to subjects in ready-to-use sachets and they were instructed to mix the contents into their normal diet once a day during the 24 week treatment period. All subjects were instructed to maintain their usual dietary and activity habits during the intervention period. […] After 8 and 16 weeks of the intervention period, subjects were invited to attend follow-up visits to record body weight and monitor compliance and gastrointestinal side-effects. After 24 weeks, measurements taken at baseline were repeated. Subjects returned all their used and unused sachets to estimate compliance. Symptom diary was also collected over the period of the study.
At study visits, a cannula was inserted into an antecubital vein and baseline blood samples were collected at −10 and 0 min to assess plasma concentrations of glucose, insulin, PYY and GLP-1. Following the 0 min sample, subjects were served a standardized breakfast (398 kcal; 71.2 g CHO, 7.9 g fat, 10.3 g protein). […] Postprandial blood samples were taken at 15, 30, 60, 90, 120, 180, 240 and 300 min and collected into heparin-coated tubes containing 0.2 ml of aprotinin (Bayer, UK). GLP-1- and PYY-like immunoreactivity was measured using specific and sensitive in-house radioimmunoassays. Insulin-like immunoreactivity was measured using an ultra-sensitive human insulin radioimmunoassay (Millipore) and plasma glucose was measured using an Abbott Architect ci8200 analyser (Abbott Diagnostics, USA). At 300 min subjects were offered a buffet lunch with food served in excess and subjects were asked to eat until they were comfortably full. The amount of food was quantified and energy intake calculated. Subjective hunger, satiety, and nausea were monitored with the use of 100 mm visual analog scales (VAS). Subjects were asked to complete the VAS before each blood sample. In addition, breath H2 was measured at 0, 60, 120, 180, 240 and 300 min (Bedfont Scientific, Kent UK) in a subset of each group (9 in the propionate ester group, 8 in the inulin control group).
Body composition was assessed using magnetic resonance imaging (MRI) and spectroscopy (MRS). […] Body weight was measured in all subjects to the nearest 0.1 kg (TBF-300, Tanita) and taken while subjects were wearing light clothing.

[4] = test system: Bifidobacterium spp (Bif164); experiment: faecal batch culture fermentation with fluorescent in situ hybridisation; format: cell-based
Method: (§2) Faecal samples were obtained from three healthy human volunteers (one female and two males; age 30-50 years; BMI 25-31). Volunteers were excluded if they suffered from any gastrointestinal disorder (e.g. ulcerative colitis, Crohn's disease, irritable bowel syndrome, peptic ulcers and cancer) and/or had taken antibiotics in the six months preceding sample donation. Samples were kept under anaerobic conditions (10% H2, 10% CO2 and 80% N2) and used within a maximum of 30 minutes following collection. Samples were diluted 1/10 w/w in anaerobic PBS (0.1 mol/1 phosphate buffer solution, pH 7.4) and homogenised in a stomacher (Stomacher 400, Seward, West Sussex, UK) for 2 minutes at normal speed.
Sterile batch culture fermenters (150 ml working volume) were set up in parallel and aseptically filled with 135 ml pre-reduced, sterile basal culture medium (peptone water 2 g/1 (Oxoid), yeast extract 2 g/1 (Oxoid, Basingstoke, UK), NaCl 0.1 g/l, K2HPO4 0.04 g/l, KH2PO4 0.04 g/l, MgSO4.7H2O 0.01 g/l, CaCl2.6H2O 0.01, NaHCO3 2 g/l, Tween 80 2 ml (BDH, Poole, UK), haemin 0.05 g/1, vitamin K1 10 cysteine.HCl 0.5 g/1, bile salts 0.5 g/1). The fermenters were gassed overnight with O2 free N2. Propionate inulin ester and inulin control substrates ( 1/10 w/v) were added to their respective fermenters just prior to the addition of the faecal slurry. […]

[5] = test system: Atopobium cluster (Ato291); experiment: as above; format: cell-based; settings: between 10 and 34 h
Method: as §2
(§3) Sterile batch culture fermenters (150 ml working volume) were set up in parallel and aseptically filled with 135 ml pre-reduced, sterile basal culture medium (peptone water 2 g/1 (Oxoid), yeast extract 2 g/1 (Oxoid, Basingstoke, UK), NaCl 0.1 g/l, K2HPO4 0.04 g/l, KH2PO4 0.04 g/l, MgSO4.7H2O 0.01 g/l, CaCl2.6H2O 0.01, NaHCO3 2 g/l, Tween 80 2 ml (BDH, Poole, UK), haemin 0.05 g/1, vitamin K1 10 cysteine.HCl 0.5 g/1, bile salts 0.5 g/1). The fermenters were gassed overnight with O2 free N2. […] A substrate-free vessel was set up for each volunteer as the negative control.

[6] = test system: Bacteroides/Prevotella (Bac303); experiment: as above; format: cell-based; settings: all sampling points
Method: as §2, §3

[7] = 10 g, 0-420 minute post oral administration, 20 subjects
[8] = 24 weeks vs baseline, fasting blood, listed as control

inulin
urine 13C propionate enrichment δ13C [1]: −23.3±1.8 ‰
fullness ratings, average iAUC [2, 7]: 26.6±2.9
hunger ratings, average iAUC [2, 7]: −24.3±4.7
pleasantness ratings, average iAUC [2, 7]: −26.6±4.6
prospective food intake ratings, average iAUC [2, 7]: −19.9±3.6
sickness ratings, average iAUC [2, 7]: −1.6±1.4
glucose levels, average iAUC ([2]; 10 g, whole meal test): 0.28±0.12
insulin levels, average iAUC ([2]; 10 g, whole meal test): 32.5±4.7
food intake during standardised ad libitum buffet meal ([2]; 7 hours after intake of 10 g supplement, 20 subjects, mean±SEM): 1175 ± 104 kcal
body weight gained ([3]; 10 g/day, after 24 weeks): 0.38 ± 0.69 kg
breath hydrogen area under curve ([3]; 24 weeks): 5000±1480
fasting breath hydrogen ([3]; 24 weeks): 19.1±7 ppm
fasting glucose, insulin, HbA1c and triglyceride concentrations ([3]; 24 weeks): no significant effect
alanine transaminase [3, 8]: significantly reduced; also recorded: significant improvements
alkaline phosphatase [3, 8]: significantly reduced; also recorded: significant improvements
total cholesterol [3, 8]: significantly reduced; also recorded: significant improvements
subjects with substantial weight gain (≧5% baseline weight) ([3]; 24 weeks, number of subjects): 4 of 24
subjects with weight gain ≧3% baseline weight ([3]; 24 weeks, number of subjects): 6 of 24
ratio of internal adipose tissue:subcutaneous adipose tissue, within group ([3]; 24 weeks, p=0.002): significantly increased
internal adipose tissue, within group ([3]; 24 weeks, p=0.049): significantly increased
subjects with substantial weight gain (≧5% baseline weight) ([3]; 24 weeks, proportion): 17%
subjects with weight gain ≧3% baseline weight ([3]; 24 weeks, proportion): 25%
breath hydrogen area under curve ([3]; baseline): 2355±800
fasting breath hydrogen ([3]; baseline): 9±3 ppm
GLP-1 ΔAUC0-300 min ([3]; baseline (week 0)): 3441 ± 843 pmol/L
food intake at buffet lunch ([3]; baseline (week 0)): 678 ± 69 kcal
insulin response AUC0-300 min ([3]; baseline (week 0)): 9285±882 μU/mL
plasma PYY ΔAUC0-300 min ([3]; baseline (week 0)): 962 ± 869 pmol/L
glycemic response AUC0-300 min ([3]; baseline (week 0), standardized breakfast): 1600 ± 51 pmol/L
plasma PYY and GLP-1 release, week 24 vs baseline ([3]; postprandial period, within group): unaffected
GLP-1 ΔAUC0-300 min ([3]; week 24): 2278 ± 1000 pmol/L
bloating and flatulence (side effect profile) ([3]; week 24): significant increase
food intake at buffet lunch ([3]; week 24): 651 ± 64 kcal
insulin response AUC0-300 min ([3]; week 24): 8781±731 μU/mL
plasma PYY ΔAUC0-300 min ([3]; week 24): 656 ± 880 pmol/L
glycemic response AUC0-300 min ([3]; week 24, standardized breakfast): 1691 ± 54 pmol/L
reduction of food intake ([3]; week 24 vs baseline): 4.0%
insulin response, week 24 vs baseline ([3]; within group): not significantly different
postprandial glucose (glycemic) response, week 24 vs baseline ([3]; within group, listed as control): significantly greater; also recorded: significant deterioration
Bif164 labelled cells compared to baseline ([4]; all time points (10, 24, 34, 48 h)): significantly increased
Bif164 levels compared to propionate inulin ester cultures ([4]; throughout fermentation): significantly higher
Ato291 labelled cells compared to baseline [5]: increased significantly
Bac303 labelled cells compared to baseline [6]: significant increases
